Data published in the supplement of paper PMC10307832.

Assays:
Assay in all cases: relative viability (nuclei count vs DMSO), 5 days (fraction); higher = more cells survive
[1] = compound: CC1=CC=C(C=C1)C(=O)CN2C3=C(CCCC3)SC2=N [Pifithrin_alpha] + O=C(CCCCCCC(=O)Nc1ccccc1)NO [Vorinostat] (partner 1 µM)
Procedure, shortened: (§1)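 Lung cancer cell lines in 1536-well plates got either a single drug or a fixed anchor-drug dose together with five library-drug doses (not always all listed) in √10 steps, by pin tool, on the day after seeding. Nuclei were counted after 5 days, and relative viability is the treated-to-vehicle ratio of nuclei counts. Values are medians of duplicate plates.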

Bemcentinib + Phenformin = compound: Nc1nc(Nc2ccc3c(c2)CC[C@@H](N2CCCC2)CC3)nn1-c1cc2c(nn1)-c1ccccc1CCC2 [Bemcentinib] + N=C(N)NC(=N)NCCc1ccccc1 [Phenformin] (partner 250 µM)
Procedure, shortened: as §1

Axitinib + Linsitinib = compound: CNC(=O)c1ccccc1Sc1ccc2c(/C=C/c3ccccn3)n[nH]c2c1 [Axitinib] + C[C@]1(O)C[C@@H](c2nc(-c3ccc4ccc(-c5ccccc5)nc4c3)c3c(N)nccn32)C1 [Linsitinib] (partner 1 µM)
Procedure, shortened: as §1

[2] = compound: CC1=CC=C(C=C1)C(=O)CN2C3=C(CCCC3)SC2=N [Pifithrin_alpha] + Cc1cc(Nc2cc(N3CCN(C)CC3)nc(Sc3ccc(NC(=O)C4CC4)cc3)n2)n[nH]1 [Tozasertib] (partner 0.1 µM)
Procedure, shortened: as §1

Row | Cell Line | relative viability ([1]; first compound 1 µM) | relative viability ([1]; first compound 3.162 µM) | relative viability ([1]; first compound 10 µM) | relative viability ([1]; first compound 31.62 µM) | relative viability ([1]; first compound 100 µM) | relative viability (Bemcentinib + Phenformin; first compound 0.04 µM) | relative viability (Bemcentinib + Phenformin; first compound 0.1265 µM) | relative viability (Bemcentinib + Phenformin; first compound 0.4 µM) | relative viability (Bemcentinib + Phenformin; first compound 1.265 µM) | relative viability (Bemcentinib + Phenformin; first compound 4 µM) | relative viability (Axitinib + Linsitinib; first compound 0.005 µM) | relative viability (Axitinib + Linsitinib; first compound 0.01581 µM) | relative viability (Axitinib + Linsitinib; first compound 0.05 µM) | relative viability (Axitinib + Linsitinib; first compound 0.1581 µM) | relative viability (Axitinib + Linsitinib; first compound 0.5 µM) | relative viability ([2]; first compound 1 µM) | relative viability ([2]; first compound 3.162 µM) | relative viability ([2]; first compound 10 µM) | relative viability ([2]; first compound 100 µM) | relative viability ([2]; first compound 31.62 µM)
1 | NCI-H23 | 0.457 | 0.4 | 0.604 | 0.343 | 0.584 | 0.813 | 0.822 | 0.803 | 0.659 | 0.755 | 0.66 | 0.618 | 0.653 | 0.587 | 0.721 | 0.304 | 0.299 | 0.316 | 0.258 | 
2 | NCI-H322M | 0.807 | 0.811 | 0.802 | 0.788 | 0.845 | 0.726 | 0.804 | 0.739 | 0.862 | 0.833 | 0.932 | 0.897 | 0.892 | 0.889 | 0.827 | 0.51 | 0.483 | 0.493 | 0.486 | 0.449
3 | NCI-H358 | 0.733 | 0.708 | 0.867 | 0.344 | 0.545 | 0.321 | 0.348 | 0.325 | 0.355 | 0.39 | 0.729 | 0.803 | 0.852 | 0.727 | 0.848 | 0.112 | 0.0941 | 0.101 | 0.0923 | 0.104
4 | NCI-H441 | 0.766 | 0.735 | 0.876 |  | 0.931 | 0.831 | 0.919 | 1.04 | 1.04 | 0.948 | 0.593 | 0.52 | 0.519 | 0.582 | 0.576 | 0.483 | 0.652 | 0.401 | 0.451 | 
5 | NCI-H460 | 0.797 | 0.397 | 0.182 | 0.0968 | 0.178 | 0.552 | 0.7 | 0.522 | 0.607 | 0.568 | 0.94 | 0.875 | 0.861 | 0.716 | 0.854 | 0.397 | 0.485 | 0.0522 | 0.126 | 0.0525
6 | NCI-H520 | 0.641 | 0.954 | 0.716 | 0.678 | 0.772 | 0.573 | 0.606 | 0.608 | 0.733 | 0.62 | 0.972 | 0.996 | 0.989 | 0.84 | 1.03 | 0.446 | 0.438 | 0.364 | 0.421 | 
7 | NCI-H596 | 0.594 | 0.603 | 0.603 | 0.585 | 0.65 | 0.698 | 0.733 | 0.783 | 0.713 | 0.772 | 1.15 | 1.1 | 1.24 | 1.16 | 1.03 | 0.79 | 0.871 | 0.977 | 0.915 | 0.705
8 | NCI-H647 | 0.514 | 0.565 | 0.592 | 0.482 | 0.53 | 0.631 | 0.488 | 0.674 | 0.62 | 0.544 | 1.23 | 1.27 | 1.19 | 1.25 | 1.44 | 0.339 | 0.382 | 0.288 | 0.145 | 0.188
